# Patent publication US10858305B2, “Perillyl alcohol-3-bromopyruvate conjugate and methods of treating cancer” (NeOnc Technologies, Inc., priority 2016, dated 2020)
# Entries after “also recorded” stand apart in the source; their conditions may differ.
# Columns and labels:
# Assay type in all cases: cell-based, human
# [1] = system: MDA-MB-231 breast cancer cells; experiment: LDH release assay in MDA-MB-231 / breast cancer cell lines; details: breast cancer cell lines, 24 hours
# Description: (§1) (A) MTT assay was performed after 24 hours. […] (B) LDH assay was performed after […]. LDH release by untreated cells was set to 1. Relative fold increase is shown (n=3).
# (§2) (A) MTT assay was performed after 24 hours. Viability of untreated cells was set at 100% (data points are averages of 2 experiments). (B) LDH assay was performed after 24 hours. LDH release by untreated cells was set to 1. Relative fold increase is shown (averages from 2 experiments). (C) Representative photos show typical colony formation after initial 48 hours of drug treatment. In all cases of combination treatment with 3-BP mixed with […] (3-BP+POH), the indicated concentrations refer to each individual drugs, i.e., 100 μM 3-BP+POH means that 100 μM 3-BP was combined with 100 μM POH.
# The capacity for rapid cell killing by NEO218 relative to 3-BP, POH and 3-BP+POH was evaluated via LDH assay, where LDH release is used as a proxy for cell death.
# In FIG. 4, Panels (a) and (b), show the results of treating breast cancer cell lines with increasing concentrations of NEO218, 3-BP, or 3-BP mixed with POH. […] In all cases a-d, the release of LDH (as a marker of cell death) was measured after 24 hours.
# Depending on the cell line, 2000 to 4000 cells per well were seeded in a volume of 50 μL into a 96-well plate. The next day, drugs ere added in an additional 50 μL of medium. At different time points (usually after 24 hours of incubation), 50 μL medium was removed and processed with the LDH Cytotoxicity Assay Kit (Thermo Fisher Scientific, Waltham, Mass.) according to the manufacturer's instructions. This kit measures extracellular LDH in culture medium using an enzymatic reaction that results in a red formazan product, which can be measured spectrophotometrically. The absorbance was measured at 490 and 680 nm. All LDH levels were normalized to untreated controls and presented as fold change of the controls.
# tumor cell lines = experiment: cells; details: Homo sapiens; MTT, 24 hours; POH alone; read-out: concentration required to reach IC50
# Description: Different tumor cell lines were treated with 3-BP mixed with POH, and the effects were compared to the effects of NEO218, as well as to 3-BP alone. The cells were treated for 24 hours, and then the MTT assay was conducted to measure cell viability.
# [2] = system: all cell types (breast, brain, ovary, colon cancer cell lines); experiment: Summary of cytotoxicity over MTT, LDH and colony formation assays (FIGS. 2-5); details: all cells
# Text: The tumor cell-killing potency of NEO218 was characterized by in vitro, short-term MTT assays (measuring viability of cells via determination of metabolic activity), LDH assays (measuring the release of lactate dehydrogenase as an indicator of leaky cell membranes, which are indicative of dying cells), and colony-formation assays (CFA, which determine long-term survival of drug-treated cells and their ability to spawn a colony of descendants). Several established cell lines derived from cancers of the breast were used as target cells (including MDA-MB-231; MDA-MB-468; T47D; MCF7; MCF7/Dox; BTB12), brain (T98G; U251), ovary (A2780), and colon (HCT116). In all cases, cells in culture were exposed to increasing concentrations of agents for 24 or 48 hours.
# [3] = system: tumor cells (two cell lines, incl. MCF7/Dox); experiment: Colony formation assay (CFA), 24 hours drug exposure (FIG. 5); details: Homo sapiens, MCF7-DOX, colonies after ten to fifteen days, read-out: IC50 (cell survival and colony formation)
# Description: The effect of NEO218 on tumor cell survival and colony formation relative to 3-BP, POH and 3-BP+POH was evaluated via the colony formation assay (CFA). Six hundred cells per culture well were seeded and exposed to increasing concentrations of NEO218, 3-BP, a mix of 3-BP+POH, or POH alone. After 24 hours, all drugs were removed from cells and fresh culture medium was added. Ten to fifteen days later, the surviving cells had formed colonies of descendants, which were stained and counted.
# MDA-MB-231 cells = experiment: MTT short-term toxicity assay in MDA-MB-231 cells; details: MDA-MB-231
# Description: as §1, §2
# Methylthiazoletetrazolium (MTT) assays were performed as described earlier.
# [4] = system: HCT116 colon cancer cells; experiment: Cellular ATP content assay; details: 100 nM rotenone in glucose-free medium
# Description: HCT116 cells were treated with 40 μM 3-BP or NEO218. As a point of reference, cells were also exposed to 100 nM rotenone in glucose-free medium. ATP levels were determined after 3 and 6 hours. ATP levels in untreated cells were set at 100% (corresponding to 26.6 nmol per one million cells).
# HCT116 colon cancer cells were treated cells with: NEO218, 3-BP; rotenone (a mitochondrial poison that blocks the respiratory chain); medium without glucose (“no gluc”; in order to shut down glycolysis); and, rotenone in combination with absent glucose (to cease all intracellular ATP production). After 3 hours of treatment, a commercially available ATP detection assay kit was employed to determine the relative levels of ATP present.
# ATP content of cells was measured with the ATP Colorimetric/Fluorometric Assay kit (Biovision Inc., Milpitas, Calif.), which utilizes the phosphorylation of glycerol to generate a product that is quantified by colorimetry at 570 nm. Approximately 1×10^6 cells were cultured in 10-cm tissue culture plates, exposed to drug treatment for various time periods, and then processed as per manufacturer's instructions. All ATP levels were normalized to untreated controls and presented as percentage of controls.
# HCT116 cells = experiment: FACS analysis for annexin V and propidium iodide; details: 2, 4 or 8 hours of treatment
# Description: (§3) (A) FACS analysis of HCT116 cells after treatment for 2, 4, or 8 hours with vehicle, 30 μM 3-BP, 30 μM NEO218, or 1 μM staurosporine (STS). […] (B) Western blot analysis of apoptotic markers. In the top section, MDA-MB-231 cells were treated with 30 μM NEO218 or 1 μM STS for various time points. In the lower section, HCT116 cells were treated with the indicated concentrations of 3-BP, NEO218, or STS for 16 hours. In all cases cell lysates were prepared and analyzed for the well-established apoptotic markers cleaved PARP, cleaved (i.e., activated) caspase 7 (cl. C-7), and phosphorylated (i.e., active) H2AX. Actin was used as a loading control. (C) HCT116 cells were pretreated with 50 μM Z-VAD-FMK for one hour, followed by the addition of increasing concentrations of 3-BP or NEO218. Cell viability was determined by MTT assay 24 hours later. Data points are averages from n=3.
# In the absence of indications that apoptotic mechanisms played a significant role in cell death induced by NEO218, necrosis was investigated as a potential key mechanism. The distinction between apoptotic and necrotic cell death was made by measuring annexin V staining (a marker of apoptosis) and PI (propidium iodide) staining (a marker of necrosis) of drug-treated cells, in comparison to non-drug-treated cells (as a control). Measurements of annexin V and PI were done by FACS analysis after 2, 4, or 8 hours of treatment. Cells were treated with NEO218, 3-BP, and staurosporine (individually), and incorporation of propidium iodide (PI, a marker of necrotic cell death) or annexin V (a marker for apoptosis) was determined by fluorescence-activated cell sorting.
# The results are organized in FIG. 8 as follows: no treatment (top row), 3-BP (second row), NEO218 (third row), and staurosporine (bottom row).
# Characterization of cell death was performed by flow cytometry using the Alexa Fluor® 488 Annexin V/Dead Cell Apoptosis kit (Thermo Fisher Scientific). This kit contains recombinant, green fluorophore-conjugated annexin V, which reacts with apoptotic cells, and DNA-binding, red-fluorescent propidium iodide (PI), which is impermeant to live and apoptotic cells, but stains dead cells. The different cell populations can be distinguished by green fluorescence (apoptotic cells), red fluorescence (necrotic/dead cells), and no fluorescence (live cells) during flow cytometry with 488 nm laser excitation. Control or drug-treated cells were processed as per manufacturer's instructions, followed by flow cytometry of 10,000 cells per point with an LSR II (BD Biosciences, San Jose, Calif.) at the USC Flow Cytometry Core Facility.
# [5] = system: cleaved caspase 7, cleaved PARP, γ-H2AX in MCF7, MDA-MB-231 and HCT116 cells; experiment: Western blot for apoptosis markers; details: STS as positive control
# Description: as §3
# The capacity for NEO218 to induce apoptosis was evaluated in a series of experiments. Three different cell lines were treated 3-BP and NEO218. Drug-treated cells were harvested, and cellular lysates were analyzed by Western blot for the presence of the three well-established markers of apoptosis: • cleaved caspase 7 (cl. C7); • cleaved (cl.) vs. full-length (f.l.) PARP; and, • induction of γ-H2AX (which indicates DNA cleavage).
# The appearance of cl. C7 and cl. PARP is indicative of ongoing apoptotic processes. In all cases, lysates were also probed for the presence of actin as a control.
# Two breast cancer cell lines (MCF7 and MDA-MB-231) and one colon cancer cell line (HCT116) were treated with increasing concentrations of NEO218 or 3-BP. As a control, they were also treated with staurosporine (STS), a known potent inducer of apoptosis. Western blot analyses for the presence of apoptosis markers are shown in the left panels of FIG. 6.
# Total cell lysates were analyzed by Western blot analysis as described earlier. Primary antibodies against cleaved caspase 7 and PARP were obtained from Cell Signaling Technology (Danvers, Mass.), and antibodies against actin (C-11) and MCT1 (H-1) were obtained from Santa Cruz Biotechnology (Santa Cruz, Calif.). All antibodies were used according to the manufacturers' recommendations, except that in the case of MCT1 detection, the boiling step was omitted before loading the samples onto the polyacrylamide gel. All immunoblots were repeated at least once to confirm the results.
compound,measurement,setting,value
"C=C(C)[C@@H]1CC=C(CO)CC1 [POH, perillyl alcohol]",toxic potency by LDH release,[1],requires fairly high concentrations to achieve cell killing
same,IC50,tumor cell lines,≥ 500 µM
same,IC50 of POH alone,[2],several hundred
same,IC50,[3],> 1000 µM
same,IC50 of POH alone,MDA-MB-231 cells,approaching the millimolar range
C=C(C)[C@H]1Cc2c(ccc3c2O[C@@H]2COc4cc(OC)c(OC)cc4[C@@H]2C3=O)O1 [rotenone],ATP level,[4]; after six hours,about 10 % of normal
same,ATP level,"[4]; within the first 3 hours, untreated = 100%",< 25%
CN[C@@H]1C[C@H]2O[C@@](C)([C@@H]1OC)n1c3ccccc3c3c4c(c5c6ccccc6n2c5c31)C(=O)NC4 [staurosporine],incorporation of PI (necrosis) versus annexin V (apoptosis),HCT116 cells,"incorporation of annexin V, but very little PI"
same,incorporation of PI (necrosis) versus annexin V (apoptosis),HCT116 cells; listed as STS,moved from the lower left quadrant (=fully viable cells) to the lower right quadrant (=annexin V-positive cells)
same,"induction of apoptosis markers (cleaved PARP, cleaved caspase 7, γ-H2AX)",[5],striking induction of all 3 markers of apoptosis
same,"induction of apoptosis markers (cleaved PARP, cleaved caspase 7, γ-H2AX)",[5]; listed as STS,"triggered pronounced cleavage of PARP, activation of C-7; also recorded: prominent appearance of apoptotic markers"
